Assay results: US8367666B2 (priority 2004, dated 2013)
Where a name gives a salt, the structure may show the parent alone. Read-outs that look alike come from different tables or passages of the source.

How the values were obtained:
CB2 receptor [1] = biological target: T1, CB2 receptor (Homo sapiens, UniProt P34972); assay: cAMP formation inhibition experiment through a cannabinoid receptor (forskolin stimulation), CB2; format: cell-based; design: expressed in transfected cells; host or cells: CHO cells
CB2 receptor [2] = biological target: T1, CB2 receptor; assay: Human cannabinoid receptor bonding inhibition test ([3H]CP55940), CB2; format: binding; design: expressed in transfected cells; membrane fraction
[3] = system: scratching action induced by Compound 48/80; assay: Anti-pruritic activity test by application (Compound 48/80 scratching); format: in vivo, mouse (Crj:CD-1 (ICR)); settings: topical, read-out: Itching inhibition ratio % (Concentration %)
Procedure: 1) Preparation of the compound and the reagent: The compound being tested was dissolved in acetone (SIGMA). Compound 48/80 (SIGMA) was dissolved in physiological saline (m by Otsuka Pharmaceutical Co., Ltd.) so as to be 60 μg/mL.
2) Animals: Female Crj: CD-1 (ICR) mice of 6 to 10 age in week (Japan Charles Liver) were used as laboratory animals. The animals were fed in the barrier breeding room where […] in room temperature, 30 to 70% in humidity, and the light and shade condition existed every 12 hours and feed (CE-2: Japan Crea) and the drinking water were freely taken. The hair of dorsa (from the cervical region of the back to the center of the back) of the animals were cut with a hair clipper two days or more before the anti-pruritic activity is evaluated, those with no wound, rubefaction, and thickening of the skin on the dehaired part were chosen and supplied to the experiment on the day of the evaluation. 3) Evaluation procedures: The acetone solution of the compound being tested was applied by 50 μL on the dehaired parts of the mice with a pipeter. On the mice of the control group, 50 μL of acetone was applied. The 15 minutes later, 50 μL (corresponding to 3 μg) of Compound 48/80 solution was injected intradermally in the compound applied parts with the use of a injector (Terumo Corporation), the mice were individually put in five observation cages made of acrylate resin at once, and the scratching action (action of scratching the injection part by the hind leg) frequency during 30 minutes was measured. The evaluation was carried out in one group of 5 to 7 mice. 4) Data processing: The experiment results were shown by the mean values. The test of the significant difference of the compound applying group to the control group was conducted with Welch's t-test, and p<0.05 was assumed to be significant.

CB1 receptor [4] = biological target: T2, CB1 receptor (Homo sapiens, UniProt P21554); assay: Human cannabinoid receptor bonding inhibition test ([3H]CP55940), CB1; format: binding; design: expressed in transfected cells; membrane fraction
CB1 receptor [5] = biological target: T2, CB1 receptor; assay: cAMP formation inhibition experiment through a cannabinoid receptor (forskolin stimulation), CB1; format: cell-based; design: expressed in transfected cells; host or cells: CHO cells
Procedure: A compound being tested was added in the CHO cell which had mad human CB1 or CB2 receptor reveal and incubated for 15 minutes, and then forskolin (the final concentration 4 μM, and manufactured by SIGMA Corp.) was added and the mixture was incubated for 20 minutes. After the reaction had been stopped by adding 1M hydrochloric acid, the amount of cAMP in the supernatant was measured with the use of Cyclic AMP kit (made by the CIS Diagnostic Corp.).

[6] = [3H]CP55940 0.5 nM, membrane preparation of CHO cells expressing CB1, Ki calculated from IC50, read-out: Binding activity (nM) CB1
[7] = [3H]CP55940 0.5 nM, membrane preparation of CHO cells expressing CB2, Ki calculated from IC50, read-out: Binding activity (nM) CB2
[8] = read-out: Agonist activity (nM) CB1

T2 sequence (P21554 whole entry): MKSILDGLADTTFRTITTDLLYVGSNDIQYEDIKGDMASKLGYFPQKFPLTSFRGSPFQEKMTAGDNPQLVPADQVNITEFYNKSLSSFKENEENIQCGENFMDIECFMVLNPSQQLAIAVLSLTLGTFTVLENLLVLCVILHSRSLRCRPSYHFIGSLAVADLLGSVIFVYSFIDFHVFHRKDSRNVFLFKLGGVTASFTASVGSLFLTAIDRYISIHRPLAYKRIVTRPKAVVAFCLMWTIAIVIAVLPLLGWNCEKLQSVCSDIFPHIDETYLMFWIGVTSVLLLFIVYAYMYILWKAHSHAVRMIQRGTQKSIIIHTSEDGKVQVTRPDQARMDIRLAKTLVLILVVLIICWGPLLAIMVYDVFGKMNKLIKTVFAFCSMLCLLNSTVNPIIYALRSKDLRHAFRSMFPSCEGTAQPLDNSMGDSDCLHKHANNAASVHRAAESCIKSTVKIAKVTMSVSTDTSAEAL
T1 sequence (P34972 whole entry): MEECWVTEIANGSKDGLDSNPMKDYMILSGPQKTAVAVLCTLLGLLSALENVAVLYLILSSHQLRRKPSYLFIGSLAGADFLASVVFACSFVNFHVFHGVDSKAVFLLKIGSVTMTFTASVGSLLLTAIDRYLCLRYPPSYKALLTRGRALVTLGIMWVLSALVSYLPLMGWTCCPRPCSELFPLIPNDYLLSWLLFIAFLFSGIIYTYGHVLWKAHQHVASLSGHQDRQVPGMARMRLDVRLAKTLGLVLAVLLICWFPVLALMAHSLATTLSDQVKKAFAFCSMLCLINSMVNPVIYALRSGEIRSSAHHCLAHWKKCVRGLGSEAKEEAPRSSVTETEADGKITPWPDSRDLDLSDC

| SMILES | IC50 (CB2 receptor [1]) [nM] | Ki (CB2 receptor [2]) [nM] | Ki (CB1 receptor [4]; [6]) [nM] | IC50 (CB1 receptor [5]; [8]) [nM] | Ki (CB1 receptor [4]) [nM] | also measured |
| --- | --- | --- | --- | --- | --- | --- |
| COC(=O)NCCCn1c2c(cc(C(=O)NC(C)(C)C(=O)OC)c1=O)CCCCCC2 (as salt: phosphate) |  |  |  |  |  | melting point: 135 to 136 °C |
| O=C(O)Cc1csc(NC(=O)c2cc3c(n(CC4CCCCC4)c2=O)CCCCCC3)c1 [IV-029] | 22 | 43 | 1320 |  |  | inhibition in vivo at 1 % ([3]; Mus musculus): 93%; IC50 (CB1 receptor [5]): 606 nM |
| CC(C)(NC(=O)c1cc2c(n(CC3CCCCC3)c1=O)CCCCCC2)C(=O)NN |  |  |  |  |  | melting point: 177 to 180 °C |
| CC(C)(NC(=O)c1cc2c(n(CC3CCCCC3)c1=O)CCCCCC2)C(=O)N1CCC(NS(C)(=O)=O)CC1 [Compound I-572] | 2.4 |  | 39 | 397 |  | Ki (CB2 receptor [2]; [7]): 4.4 nM; inhibition in vivo at 1 % ([3]; Mus musculus): 97% |
| CC(C)CCn1c2c(cc(C(=O)NC(C(=O)O)c3cccs3)c1=O)CCCCCC2 (centres unmarked) [Compound I-551] | < 2 | 2.2 |  | 135 | 50 | inhibition in vivo at 2 % ([3]; Mus musculus): 51% |
| CCCCn1c(CCC)c(CC)cc(C(=O)NC2CCCCC2C(=O)O)c1=O (centres unmarked) |  |  |  |  |  | melting point: 167 to 169 °C |
| CC(C)C[C@@H](CC(=O)O)NC(=O)c1cc2c(n(CC3CCCCC3)c1=O)CCCCCC2 [II-069] | 2.1 | 3.4 |  | 5.6 | 88 | inhibition in vivo at 3 % ([3]; Mus musculus): 84% |
| CC(C)(NC(=O)c1cc2c(n(CC3CCCCC3)c1=O)CCCCCC2)C(N)=O [Compound I-002] | 4.4 | 7.1 |  | 11 | 48 | inhibition in vivo at 2.5 % ([3]; Mus musculus): 68% |
| CCNC(=O)C1CCCN(C(=O)C(C)(C)NC(=O)c2cc3c(n(CC4CCCCC4)c2=O)CCCCCC3)C1 (centres unmarked) [Compound I-595] | 30 | 9.5 | 354 |  |  | inhibition in vivo at 3 % ([3]; Mus musculus): 108%; IC50 (CB1 receptor [5]): 1210 nM |
| CCS(=O)(=O)NNC(=O)C(C)(C)NC(=O)c1cc2c(n(CC3CCCCC3)c1=O)CCCCCC2 [Compound I-596] | 30 | 22 | 341 |  |  | inhibition in vivo at 3 % ([3]; Mus musculus): 60%; IC50 (CB1 receptor [5]): 312 nM |
| CN1CCN(C(=O)C(C)(C)NC(=O)c2cc3c(n(CC4CCCCC4)c2=O)CCCCCC3)CC1 |  |  |  |  |  | melting point: 183 to 184 °C |
| CC(C)(NC(=O)c1cc2c(n(CC3CCCCC3)c1=O)CCCCCC2)C(=O)N1CCC(C(=O)N2CCOCC2)CC1 [Compound I-617] | 18 | 6.6 |  | 79 | 295 | inhibition in vivo at 1 % ([3]; Mus musculus): 96% |
| O=C(O)CCc1csc(NC(=O)c2cc3c(n(CC4CCCCC4)c2=O)CCCCCC3)n1 [Compound X-64] |  |  | 580 |  |  | IC50 (CB2 receptor [1]; inhibition of forskolin (4 μM)-stimulated cAMP formation, CHO cells expressing human CB2, read-out: Agonist activity (nM) CB2): 15 nM; Ki (CB2 receptor [2]; [7]): 18 nM; inhibition in vivo at 1 % ([3]; applied as acetone solution 50 μL, concentration 1.0%, mouse, Compound 48/80): 99%; IC50 (CB1 receptor [5]; inhibition of forskolin (4 μM)-stimulated cAMP formation, CHO cells expressing human CB1, read-out: Agonist activity (nM) CB1): 454 nM |
| O=C(O)Cc1nsc(NC(=O)c2cc3c(n(CC4CCCCC4)c2=O)CCCCCC3)n1 [Compound X-21] | 30 | 3.3 | 1770 |  |  | inhibition in vivo at 1 % ([3]; Mus musculus): 106%; IC50 (CB1 receptor [5]): > 2000 nM |
| CC(C)(NC(=O)c1cc2c(n(CC3CCCCC3)c1=O)CCCCCC2)C(=O)N1CCC(C(=O)NNS(C)(=O)=O)CC1 [Compound I-606] | 8.7 | 4.4 |  | 118 | 60 | inhibition in vivo at 1 % ([3]; Mus musculus): 86% |
| CC(C)(NC(=O)c1cc2c(n(CC3CCCCC3)c1=O)CCCCCC2)C(=O)NCC(N)=O [Compound I-054] | 15 |  | 11 | 51 |  | Ki (CB2 receptor [2]; [7]): 6 nM; inhibition in vivo at 2 % ([3]; Mus musculus): 63% |
| CCCC(CC(=O)O)NC(=O)c1cc2c(n(CC3CCCCC3)c1=O)CCCCCC2 (centres unmarked) [Compound X-66] | 50 | 92 | > 2000 |  |  | inhibition in vivo at 1 % ([3]; Mus musculus): 71%; IC50 (CB1 receptor [5]): 549 nM |
| CCc1c(C)cc(C(=O)N[C@H](C(=O)NC(CO)CO)C(C)(C)C)c(=O)n1CC1CCCCC1 [Compound I-038] | < 2 | < 2 |  | 34 | 7.1 | inhibition in vivo at 3 % ([3]; Mus musculus): 67% |
| CCCCNC(=O)C1CCCN(C(=O)C(C)(C)NC(=O)c2cc3c(n(CC4CCCCC4)c2=O)CCCCCC3)C1 (centres unmarked) [Compound I-608] | 3.5 | 11 |  | > 2000 | 527 | inhibition in vivo at 3 % ([3]; Mus musculus): 75% |
| COC(=O)[C@@H](NC(=O)c1cc(C)c(C)n(Cc2ccc(F)cc2)c1=O)C(C)C [Compound I-094] | < 2 | < 2 |  | 9 | < 2 | inhibition in vivo at 0.5 % ([3]; Mus musculus): 60% |
| O=C(N[C@@H](C(=O)O)c1ccccc1)c1cc2c(n(CCCC(F)(F)F)c1=O)CCCCCC2 [Compound X-54] | 3.7 | < 2 |  | > 2000 | 93 | inhibition in vivo at 1 % ([3]; Mus musculus): 100% |
| CC(C)(NC(=O)c1cc2c(n(CC3CCCCC3)c1=O)CCCCCC2)C(=O)C1CCCC(C(N)=O)N1 (centres unmarked) [Compound I-580] | 48 | 7.4 |  | 41 | 24 | inhibition in vivo at 3 % ([3]; Mus musculus): 98% |
| CC(C)(NC(=O)c1cc2c(n(CC3CCCCC3)c1=O)CCCCCC2)C(=O)N1CCC(C(=O)N2CCCCC2)CC1 [Compound I-601] | 6.3 | 3.9 |  | 186 | 47 | inhibition in vivo at 1 % ([3]; Mus musculus): 67% |
| CC(C)(NC(=O)c1cc2c(n(CCCNS(C)(=O)=O)c1=O)CCCCCC2)C(=O)O |  |  |  |  |  | melting point: 183 to 184 °C |
| CC(C)(NC(=O)c1cc2c(n(CC3CCCCC3)c1=O)CCCCCC2)C(=O)NNS(C)(=O)=O [Compound I-052, 1-cyclohexylmethyl-2-oxo-1,2,5,6,7,8,9,10-octahydro-cycloocta[b]pyridine-3-carboxylic acid (1-methylsulfonylhydrazinocarbonyl-1-methyl-ethyl)-amide] | 8.1 |  |  | 49 |  | inhibition in vivo at 3 % ([3]; Mus musculus): 80%; melting point: 177 to 178 °C |
| COC(=O)C(C)(C)NC(=O)c1cc2c(n(CC3CCCCC3)c1=O)CCCCCC2 [Compound I-084, methyl 2-[(1-cyclohexylmethyl-2-oxo-1,2,5,6,7,8,9,10-octahydro-cycloocta[b]pyridine-3-carbonyl]-amino}-2-methyl-propionate] | < 2 | < 2 |  | < 2 | < 2 | inhibition in vivo at 0.1 % ([3]; Mus musculus): 60% |
| COCCn1c2c(cc(C(=O)NC3(CC(=O)O)CCCC3)c1=O)CCCCCC2 [XI-035] | 47 | 31 |  | > 2000 | > 2000 | inhibition in vivo at 0.5 % ([3]; Mus musculus): 69% |
| CC(C)C[C@@H](CC(=O)O)NC(=O)c1cc2c(n(Cc3ccc(F)cc3)c1=O)CCCCCC2 [II-078] | < 2 | 27 | 1450 |  |  | inhibition in vivo at 3 % ([3]; Mus musculus): 94%; IC50 (CB1 receptor [5]): 252 nM |
